Assay results from patent publication US20030129255A1, “Colloidal silver suspension for treating skin problems in tropical and decorative fish” (priority 2002, published 2003).

Tested on: nitrifying bacteria
Description: In accordance with the present invention, a method of treating skin problems in fish comprises adding a teaspoon (5 ml) of a suspension of colloidal silver in which the concentration of silver ranges between 6 ppm and 12 ppm (parts per million) to 10 gallons of water in an aquarium every other day and then changing 50% of the water once a week, so that the water to which the fish to be treated are exposed has a silver concentration initially in the range of 0.77 ppb to 1.5 ppb (parts per billion).

For colloidal silver, the “survival of nitrifying bacteria” value was “some nitrifying bacteria can survive this treatment”.
